This is an account of results in PubChem BioAssay (NCI).

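48-hour exposure; five concentrations; linearly interpolated endpoints. Abbreviation: GI50, concentration required for 50% inhibition of growth. TGI denotes the concentration required for complete inhibition of growth.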

What all share (assay): NCI-60 cell line screen, 48 h
The subject of test [1] is HCT-116 colon.
For test [2], the system named is OVCAR-4 ovarian.
Test [3] concerns MCF7 breast.
Test [4] relates to SN12C renal.
In test [5] the test system is NCI-H226 lung.
The subject of test [6] is T-47D breast.
Test [7] has as its system DU-145 prostate.
For test [8], the system named is TK-10 renal.
Test [9] has as its system SF-268 CNS.
Test [10] deals with SNB-75 CNS.

Turning to `CNC(=O)c1c(NC(=O)c2ccc(C(C)(C)C)cc2)sc2c1CCC(=O)C2`, the GI50 in [1] was 0.0971 µM; in test [2], 0.195 µM; in test [3], 0.264 µM; in test [4] it was 0.333 µM; in test [5], 0.558 µM; in test [6], 0.184 µM. The GI50 in test [7] is 1.44 µM; in test [8], 0.374 µM; in [9], 0.414 µM; in [10] it was 0.343 µM. Further, the TGI in test [1] stood at 1.4 µM; in test [2], 0.991 µM; in [3] it was 1.33 µM; in test [4], 1.4 µM; in test [5] it was 1.99 µM; in test [6] it was 1.53 µM. Besides, the TGI in test [7] is 3.68 µM; in test [8], 1.97 µM; in test [9], 1.85 µM; in [10] it was 1.44 µM.

With `CCC(C)Nc1ccc(N)cc1` (stereo not given), the GI50 is 2.73 µM in test [1]; 3.18 µM in test [2]; 3.41 µM in test [3]; 2.95 µM in test [4]; 4.39 µM in [5]; 3.63 µM in test [6]. The GI50 in test [7] was 5.75 µM; in [8], 5.72 µM; in [9] it was 5.61 µM; in test [10], 4.25 µM. Besides, the TGI amounted to 8.73 µM in test [1]; 38.6 µM in test [2]; 12.4 µM in test [3]; 12.9 µM in [4]; 19 µM in test [5]; 14.1 µM in [6]. In addition, the TGI is 19.7 µM in test [7], 25.3 µM in test [8], 19.2 µM in test [9] and 20.3 µM in [10].

For the compound `Nc1ccc(C(=O)N/C(=C\c2cccc([N+](=O)[O-])c2)c2nc3[nH]c(=S)[nH]c(=O)c3[nH]2)cc1`, the TGI is greater than 100 µM in test [1]; greater than 100 µM in test [2]; greater than 100 µM in [3]; greater than 100 µM in test [4]; greater than 96.7 µM in test [5]; greater than 89.5 µM in test [6]. The TGI in test [7] is greater than 100 µM; in [8], greater than 100 µM; in test [9] it was greater than 100 µM; in [10], 32.1 µM.

As for `COc1ncc(Nc2ncc([C@@H](C)N3CCN(S(C)(=O)=O)CC3)cc2-c2nc(C)nc(N)n2)cc1F`, the GI50 is 1.87 µM in test [1]; 3.29 µM in [2]; 0.0147 µM in test [3]; 0.0686 µM in test [4]; 2.59 µM in [5]; less than 0.01 µM in [6]. For the same compound, the GI50 is 0.183 µM in test [7], 0.0222 µM in test [8], 0.452 µM in test [9] and less than 0.01 µM in test [10]. The TGI in test [1] was greater than 100 µM; in test [2] it was greater than 100 µM; in [3], greater than 100 µM; in [4], greater than 33.6 µM; in test [5] it was greater than 100 µM; in test [6], 0.0648 µM. Also, the TGI is greater than 100 µM in [7], 1.22 µM in test [8], greater than 100 µM in test [9] and 0.0585 µM in test [10].

As for `COc1ccc(/C(COc2ccc3oc(-c4ccccc4)cc(=O)c3c2)=N\O)cc1`, the GI50 in test [1] is less than 0.005 µM; in test [2], 10.4 µM; in [3], less than 0.005 µM; in [4], 0.231 µM; in [5] it was 12.3 µM; in test [6] it was 2.41 µM. The GI50 in [7] was 2.27 µM; in test [8] it was 0.149 µM; in test [9], 0.162 µM; in test [10], 1.3 µM. Besides, the TGI in test [1] was 9.36 µM; in test [2] it was greater than 29.9 µM; in [3], 11.6 µM; in [4], 4.54 µM; in test [5], greater than 50 µM; in test [6], greater than 50 µM. Further, the TGI in test [7] was 13.4 µM; in [8] it was 9.75 µM; in test [9], 1.36 µM; in test [10] it was 23.2 µM.

For the compound `O=C(Nc1cccc(O)c1)c1ccc(NC2=C(Cl)C(=O)N(Cc3ccc(Cl)cc3Cl)C2=O)cc1`, the GI50 in test [1] was 6.89 µM; in [2], 5.43 µM; in test [3], 1.83 µM; in test [4], 1.99 µM; in [5] it was 6.78 µM; in [6], 2.01 µM. The GI50 in [7] was 6.15 µM; in [8], 2.07 µM; in test [9], 2.01 µM; in test [10], 2.77 µM. Also, the TGI in [1] is greater than 56.4 µM; in test [2] it was 12.7 µM; in test [3] it was 4.29 µM; in [4] it was 4.09 µM; in [5], 26.7 µM; in test [6] it was greater than 21.2 µM. The TGI in [7] came out at 11.6 µM; in [8], 4.82 µM; in [9], 4.75 µM; in [10], 11.2 µM.

With `COc1ccc2c(c1)nc(C(=O)c1ccco1)c(C(F)(F)F)[n+]2[O-]`, the GI50 in test [1] was greater than 100 µM; in test [2], greater than 100 µM; in test [3], greater than 100 µM; in test [4], greater than 100 µM; in test [5], greater than 100 µM; in test [6], 77.4 µM. Moreover, the GI50 is greater than 100 µM in [7], 86.8 µM in test [8], 83.8 µM in test [9] and 51.4 µM in test [10]. For the same compound, the TGI in test [1], in test [2], in test [3], in test [4], in test [5] and in [6] was greater than 100 µM each time. Moreover, the TGI in [7], in [8], in test [9] and in [10] was greater than 100 µM each time.

With `Cc1ccc(S(=O)(=O)SC(C)(C)C)cc1`, the TGI in test [1] was 31.8 µM; in [2], 46.5 µM; in test [3], 42.1 µM; in test [4] it was greater than 65.2 µM; in test [5], greater than 100 µM; in test [6], greater than 100 µM. Moreover, the TGI in [7], in test [8], in test [9] and in [10] was greater than 100 µM throughout.
